From US20100047284A1 (priority 2006, published 2010) come the findings set out here.

For data set [1], the system named is endothelial mediated relaxation.
The subject of a further data set is radial artery rings. The data set is classed as cell-based, Human.
The next data set deals with radial artery tissue. Kind of data set: spontaneous contractility of radial artery tissue. Type of data set: cell-based, Human. As to conditions: radial artery tissue (FIG. 11A).
Another data set deals with mammary artery samples. The data set is classed as cell-based, Human.
A further data set has as its system vascular smooth muscle. The data set is classed as cell-based, Human.

Entries after “also recorded” stand apart in the source; their conditions may differ.

For the molecule pertussis toxin, in data set [1], the “endothelial mediated relaxation after incubation with toxin” value was “no impairment”. Further, in the data set with radial artery rings, the “concentration most effective at inhibiting adrenaline-mediated contraction” value came to 50 µg/mL; the “effect on dose response curves to adrenaline, angiotensin II or PGF2α” value is given as “inhibited the contraction”; the “effect on subsequent vasoconstrictor responses (in words)” value is “inhibit the maximal contraction force produced and the sensitivity”; the “incubation time at which toxin is effective in inhibiting adrenaline-induced vasoconstriction” value was found to be 60 min. In addition, the “inhibition of contraction, depending on the vasoconstrictor” value in the data set with radial artery rings was 20-60%.
With `CC(COc1ccccc1)N(CCCl)Cc1ccccc1` (stereo not shown) [phenoxybenzamine, Phenoxybenzamine, reference compound], the “effect on spontaneous contraction” value with radial artery tissue was “no effect; also recorded: lack of effect”. In the data set with radial artery rings, the “effect on angiotensin II-induced contraction” value is listed as “no inhibitory effect”.
For the molecule cholera toxin, in the data set with mammary artery samples, the “concentration most effective at inhibiting angiotensin II induced contraction” value was 0.57 µM. Further, the “endothelial mediated relaxation after incubation with toxin” value in data set [1] was “no impairment”. Besides, in the data set with radial artery rings, the “concentration most effective at inhibiting adrenaline-mediated contraction” value came out at 25 µg/mL; the “effect on dose response curves to adrenaline, angiotensin II or PGF2α” value is recorded as “inhibited the contraction”; the “effect on subsequent vasoconstrictor responses (in words)” value was “inhibit the maximal contraction force produced and the sensitivity”; the “incubation time at which toxin is effective in inhibiting adrenaline-induced vasoconstriction” value stood at 30 min. Moreover, in the data set with radial artery rings, the “inhibition of contraction, depending on the vasoconstrictor” value is on record as 15-50%. Moreover, the “optimal concentration most effective at reducing contractile activity” value in the data set with vascular smooth muscle is given as “about 0.6 μM; also recorded: about 51 μg/ml”.
